Here are results for seven molecules from patent US6121315A, “Oral compositions containing a zinc compound” (priority 1999, dated 2000).

For data set [1] the following is noted: 1 hour after using 31 or 18 mM; cited from earlier work.
For data set [2] the following is noted: cited from earlier work.
Data set [3] concerns Fusobacterium nucleatum (ATCC 10953). The format is cell-based. The source says:
The objective of this study was to evaluate the use of pure cultures or oral malodor-causing bacteria as the source of malodor instead of human subjects. Cultures of Fusobacterium nucleatum, Veillonella parvula and Prevotella sp. are well recognized producers of VSC's due to their ability to digest amino acids including cysteine and methionine. The most widely investigated of these is F. nucleatum. Therefore, this organism was selected for this in vitro test. Evaluating a finished oral care composition spiked with Fusobacterium was considered, however, the detector in the Halimeter was adversely affected by alcohols. […] Therefore, the following methodology was applied to screen the effectiveness of various zinc salt solutions in reducing VSC's: Fusobacterium nucleatum (ATCC #10953) was transferred twice from frozen stock cultures and maintained by daily transfers in […]' broth (Difco or BBL). […] The tube is a scaled down version of a Kontes #181000 adapter inlet with hose connectors which is coupled to a 18×100 mm glass tube fitted with a tapered ground fitting. After one minute the Halimeter was connected to a port on the reaction tube and allowed to sample the VSC's in the solution via the vacuum pump. The peak reading recorded by the Halimeter was taken as the VSC measurement. The level of inoculum selected was determined by ppb of VSC's generated in inoculated water alone. […] Three different zinc salt solutions, ZnCl2, ZnSO4, and ZnO, were evaluated. […] Water was used as the control. (Table 1) The heading D% refers to the difference between the measurement of VSCs in ppb using a pure water solution and the measurement of VSCs in ppb using varying concentrations of zinc salts. Each experiment was run in triplicate.

The nature of data set [4]: Adherence of zinc to simulated dental plaque on steel wires, fluorimetric with 8-hydroxyquinoline.
Excerpt: To determine how readily zinc adheres to dental plaque, the adherence of zinc to simulated plaque grown on steel wires was fluorimetrically measured. Increasing concentrations of zinc solutions were used in the test oral compositions.
After the simulated plaque is developed on the wires, it is then immersed in the oral composition to be tested, which is followed by a rinse. Thereafter, the plaque coated wires are immersed in a 0.01% solution of 8-hydroxyquinoline prepared by dissolving the 8-hydroxyquinoline in 100% ethanol. Twenty (20) ml of this solution were then brought q.s. up to the correct concentration.
The nature of data set [5]: Overnight malodor study: morning mouth air VSC (H2 S, CH3 SH) by gas chromatography. The format is in vivo, human. On the procedure:
Subjects participating in this study maintained their normal nightly oral hygiene procedure for the duration of the study. In addition, all participants were asked to refrain from eating odoriferous foods at least 24 hours prior to their appointment for measurement of VSC's.
Subjects reported directly to the laboratory each morning for measurement of mouth air VSC levels. This measurement was the baseline (pretreatment) level of VSC. Selection for the study was based on morning levels of H2 S above 30 parts per billion (ppb) and CH3 SH above 20 ppb. Subjects fulfilling this criteria received a treatment to use that evening. Immediately before retiring to bed, the subjects rinsed vigorously for 30 seconds using the assigned treatment. The following morning the subject returned to the lab for analysis of mouth air VSC. This measurement was the post-treatment value. These treatments were assigned in a random, crossover design experiment.
Levels of VSC in subject's mouth air were determined using a gas chromatography system equipped with a flame photometric detector. […] Analysis of variance tested for significant treatment differences.
Differences between treatment were tested by analysis of variance using post minus pretreatment levels of mouth air VSCs.

[6] abbreviates: 0.25% zinc chloride, significant reduction from Baseline.
The mark [7] stands for this setting: individual subjects 1-13 in table order, morning after 20 ml of 0.25% zinc chloride, 30 second rinse at bedtime.
Where [8] appears, read: individual subjects 1-13 in table order, pretreatment, zinc chloride arm.
The mark [9] stands for this setting: mean of 13 subjects, pretreatment, zinc chloride arm.

Structures are written as SMILES. “And” between values parts separate entries of the source, which are not always exact repeats. Identical values can stand only once. Like-named read-outs stand apart in the source and are kept apart here.

As to `O=S(=O)([O-])c1ccc(O)cc1.O=S(=O)([O-])c1ccc(O)cc1.[Zn+2]` [zinc phenolsuphonate], the oral zinc concentration result in data set [1] is given as “markedly increased”.

For the molecule `CC(C)[C@@H]1CC[C@@H](C)C[C@H]1OC(=O)CCC(=O)O` [monomenthyl succinate], in data set [2], the solubility in water result was “sparingly soluble”. Also, in data set [2] (relative to water), the solubility in oil result is given as “more soluble”.

In the case of `[O]=[Zn]` [ZnO, zinc oxide], the “% D, difference from water in VSC” value is -53.7% in data set [3] (0.01%, first run); -54.9% in data set [3] (0.01%, second run); -40.0% in data set [3] (0.01%, third run); -48.7% in data set [3] (0.05%, first run); -51.8% in data set [3] (0.05%, second run); -37.5% in data set [3] (0.05%, third run). In addition, the “% D, difference from water in VSC” value in data set [3] (0.1%, first run) is recorded as -58.2%; in data set [3] (0.1%, second run), -57.6%; in data set [3] (0.1%, third run), -42.1%; in data set [3] (0.2%, first run) it was -59.4%; in data set [3] (0.2%, second run) it was -63.5%; in data set [3] (0.2%, third run), -47.9%. In addition, the “% D, difference from water in VSC” value is -60.2% in data set [3] (0.4%, first run); -70.5% in data set [3] (0.4%, second run); -54.1% in data set [3] (0.4%, third run).

In the case of `[Cl-].[Cl-].[Zn+2]` [ZnCl2, zinc chloride], the “% D, difference from water in VSC” value is -47.4% in data set [3] (0.01%, first run); -58.3% in data set [3] (0.01%, second run); -37.0% in data set [3] (0.01%, third run); -53.0% in data set [3] (0.05%, first run); -57.5% in data set [3] (0.05%, second run); -40.0% in data set [3] (0.05%, third run). In addition, the “% D, difference from water in VSC” value in data set [3] (0.1%, first run) is reported as -53.8%; in data set [3] (0.1%, second run), -54.6%; in data set [3] (0.1%, third run) it was -43.1%; in data set [3] (0.2%, first run), -59.8%; in data set [3] (0.2%, second run), -60.4%; in data set [3] (0.2%, third run) it was -47.9%. Further, the “% D, difference from water in VSC” value in data set [3] (0.4%, first run) is given as -63.2%; in data set [3] (0.4%, second run), -58.9%; in data set [3] (0.4%, third run), -47.4%. Besides, the “amount of fluorescence in dental plaque vs concentration” value in data set [4] (ZnCl2 0.001%, 0.010%, 0.025%, 0.050% and 0.100%) was “the amount of fluorescence increased with increasing zinc concentration”. Further, the “lowest concentration at which fluorescence from zinc was detectable in dental plaque” value in data set [4] (base oral composition identical to Example 2, excitation 360 nm, emission 530 nm or 590 nm) is 0.001 % (w/v). Further, in data set [5] (setting [6]), the “CH3 SH, Probability (p), t-test for differences from baseline” value is listed as “.0209”. Further, in data set [5] (setting [6]), the “H2 S, Probability (p), t-test for differences from baseline” value is on record as “.0074”. Moreover, the “CH3 SH levels, Post” value in data set [5] (setting [7]) was 50 ppb and 20 ppb and 63 ppb and 176 ppb and 41 ppb and 35 ppb and 29 ppb and 25 ppb and 133 ppb and 47 ppb and 16 ppb. Moreover, in data set [5] (setting [7]), the “H2 S levels, Post” value was 41 ppb and 22 ppb and 162 ppb and 268 ppb and 129 ppb and 106 ppb and 35 ppb and 318 ppb and 32 ppb and 94 ppb and 17 ppb and 97 ppb. For the same molecule, in data set [5] (setting [8]), the “CH3 SH levels, Baseline” value is 173 ppb and 46 ppb and 358 ppb and 115 ppb and 249 ppb and 61 ppb and 51 ppb and 99 ppb and 170 ppb and 217 ppb and 44 ppb and 59 ppb and 34 ppb. For the same molecule, the “H2 S levels, Baseline” value in data set [5] (setting [8]) is 344 ppb and 53 ppb and 522 ppb and 204 ppb and 644 ppb and 310 ppb and 91 ppb and 509 ppb and 191 ppb and 175 ppb and 81 ppb and 110 ppb and 170 ppb. Further, the “CH3 SH levels, Post, mean (x)” value in data set [5] (mean of 13 subjects, morning after 20 ml of 0.25% zinc chloride, baseline mean 129, water 76 to 65) came to 57 ppb. Also, the “H2 S levels, Post, mean (x)” value in data set [5] (mean of 13 subjects, morning after 20 ml of 0.25% zinc chloride, baseline mean 262, water 164 to 113) was found to be 114 ppb. In data set [5] (setting [9]), the “CH3 SH levels, Baseline, mean (x)” value is 129 ppb. Besides, the “H2 S levels, Baseline, mean (x)” value in data set [5] (setting [9]) amounted to 262 ppb. For the same molecule, the “development of VSC's overnight in vivo” value in data set [5] (summary statement in words) is “prevent or inhibit”.

In the case of `O=S(=O)([O-])[O-].[Zn+2]` [ZnSO4, zinc sulfate], the “% D, difference from water in VSC” value in data set [3] (0.01%, first run) is on record as -52.0%; in data set [3] (0.01%, second run) it was -67.7%; in data set [3] (0.01%, third run), -38.7%; in data set [3] (0.05%, first run) it was -53.6%; in data set [3] (0.05%, second run), -51.3%; in data set [3] (0.05%, third run), -42.5%. The “% D, difference from water in VSC” value is -54.7% in data set [3] (0.1%, first run); -58.6% in data set [3] (0.1%, second run); -42.4% in data set [3] (0.1%, third run); -58.1% in data set [3] (0.2%, first run); -67.4% in data set [3] (0.2%, second run); -48.1% in data set [3] (0.2%, third run). For the same molecule, the “% D, difference from water in VSC” value in data set [3] (0.4%, first run) is -65.0%; in data set [3] (0.4%, second run), -58.2%; in data set [3] (0.4%, third run) it was -51.0%.

Regarding `[Cl-].[Cl-].[Zn+2]` [zinc], in data set [5] (overnight, morning breath, result in words), the “levels of CH3 SH and H2 S compared to baseline levels” value is recorded as “significantly reduced”.

Turning to `CC1CCC(C(C)C)C(O)C1` (stereo not drawn) [Menthol, hexahydrothymol, reference compound], the solubility in alcohol result in data set [2] was “highly soluble”.
